According to patent US3954893A, “New halogenated cyclobutanes” (W. R. Grace & Co., priority 1975, dated 1976):

How the values were obtained:
[1] = review of the art; cited from earlier work
air-breathing mammals = assay: Inhalation anesthetic properties of the compounds; type: in vivo; conditions: for Convulsions and death: administered in concentrations within the useful range; for Inhalation anesthetic properties: in vivo
Protocol: (§1) In this test, mice were exposed to the compounds for a period of 10 minutes in a rotating drum. Observations were then made of the pinch reflex, the corneal reflex and the return of the righting reflex. At least four graded doses were employed to determine the minimum concentration required to anesthetize 50% of the mice used (AC50) and the minimum concentration required to kill 50% of the mice (LC50). The anesthetic index (AI) was then calculated from these minimum concentrations. The data obtained with the compounds of Examples I to XIII are presented in Table 2 along with, for comparison purposes, results obtained from similar testing of 1,2-dihydrohexafluorocyclobutane, the compound of the prior art, a closely related analog, 1,1,2,2-tetrafluorocyclobutane, and another chlorofluoro anesthetic, 1,1,2-trichloro-2,3,3-trifluorocyclobutane.

[2] = Standard test for evaluation of inhalation anesthetics (rotating drum, 10 minutes exposure; AC50, LC50, AI); type: in vivo, mice; conditions: mouse, in vivo, inhaled or intranasal, calculated from AC50 and LC50, mice; read-out: AI (anesthetic index)
Protocol: as §1

mice [3] = assay: as above; type: in vivo; conditions: for AC50 (minimum concentration required to anesthetize 50% of the mice) / LC50 (minimum concentration required to kill 50% of the mice): inhalation, 10 minutes exposure in rotating drum, where two percentages are given the actual vapor concentration lies between them
Protocol: as §1

mice [4] = assay: Observation after exposure: survival, delayed death, convulsions; type: in vivo
Protocol: as §1
In contrast to these findings, all test mice used in Example I to X were still living one week after exposure.
This compound, which is one of the numerous halogenated cyclobutanes that have been found deleterious, is of particular interest in that its close structural relationship to the 1,2-dihydrohexafluorocyclobutane isomers of the art and to the useful trifluoro (Ex. VII) homolog disclosed above provides a good illustration of the unpredictability in physiological behavior in the field of anesthesia.

[5] = cis- and trans- isomers, values reported by Burns et al; cited from earlier work

Row | SMILES | Convulsions and death (air-breathing mammals) | Inhalation anesthetic properties (air-breathing mammals) | selectivity ratio at 10 min [2] | AC50 (minimum concentration required to anesthetize 50% of the mice) (mice [3]) | LC50 (minimum concentration required to kill 50% of the mice) (mice [3]) | also measured
1 | FC1(F)C(F)(F)C(F)(Cl)C1(F)Cl (centres unmarked) [1,2-dichlorohexafluoro-] |  |  |  |  |  | Anesthetic properties / toxicity in the prior art [1]: toxic
2 | FC1C(F)C(F)(F)C1(F)F (centres unmarked) [1,2-dihydrohexafluoro-, 1,2-dihydrohexafluorocyclobutane] |  |  |  |  |  | Anesthetic properties / toxicity in the prior art [1]: said to possess anesthetic properties
3 | FC1(F)CC(Cl)C1(F)Cl (centres unmarked) [1,4-dichloro-1,2,2-trifluorocyclobutane] | not cause convulsions and death | found to possess inhalation anesthetic properties |  |  |  | 
4 | FC1(F)CC(Cl)C1(F)Br (centres unmarked) [Example X, 1-bromo-2-chloro-1,4,4-trifluorocyclobutane] | not cause convulsions and death | found to possess inhalation anesthetic properties | ≥ 2.5 | < 0.2 % volume | 0.5 % volume | 
5 | FC1(F)CCC1(F)F [Example XII, 1,1,2,2-tetrafluorocyclobutane, reference compound] |  |  | 3 | 4 % volume | 12 % volume | Convulsions (mice [4]; on further observation): proved to be a convulsant on further observation
6 | FC1(F)CC(Cl)C1(F)Cl (centres unmarked) [I, b.p. 104°C] |  |  |  | 0.2 % volume | 0.8 % volume | AI (anesthetic index) (mice [3]; calculated from AC50 and LC50, mice, 10 min): 4
7 | FC1(F)CC(Cl)C1(F)Cl (centres unmarked) [I, b.p. 107°C] |  |  | 6 | 0.2 % volume | 1.2 % volume | 
8 | FC1CC(F)(F)C1(F)Cl (centres unmarked) [II, 1-chloro-1,2,2,4-tetrafluorocyclobutane] | not cause convulsions and death | found to possess inhalation anesthetic properties | ≥ 6 | 0.5 % volume | 3-3.5 % volume | 
9 | FC1(F)CC(F)(Cl)C1(F)Cl (centres unmarked) [III, 1,4-dichloro-1,2,2,4-tetrafluorocyclobutane] | not cause convulsions and death | found to possess inhalation anesthetic properties | ≥ 1 | 0.43-2 % volume | 2-3 % volume | 
10 | FC1C(Cl)CC1(F)F (centres unmarked) [IV, 1-chloro-2,3,3-trifluorocyclobutane] | not cause convulsions and death | found to possess inhalation anesthetic properties | ≥ 4 | 0.75-1 % volume | ≥ 4 % volume | 
11 | CC1CC(F)(F)C1(F)Br (centres unmarked) [IX, 1-bromo-2-methyl-1,4,4-trifluorocyclobutane] | not cause convulsions and death | found to possess inhalation anesthetic properties | ≥ 1.5 | 0.5-1 % volume | 1.5-1.75 % volume | 
12 | FC1(F)CC(F)(Cl)C1(F)F (centres unmarked) [V, 1-chloro-1,2,2,3,3-pentafluorocyclobutane] | not cause convulsions and death | found to possess inhalation anesthetic properties | 5 | 2 % volume | 10 % volume | 
13 | FC1CC(F)(F)C1Cl (centres unmarked) [VI, 1-chloro-2,4,4-trifluorocyclobutane] | not cause convulsions and death | found to possess inhalation anesthetic properties | ≥ 2 | < 1 % volume | 2 % volume | 
14 | FC1CCC1(F)F (centres unmarked) [VII, 1,2,2-trifluorocyclobutane] | not cause convulsions and death | found to possess inhalation anesthetic properties | ≥ 2 | < 4 % volume | 8 % volume | 
15 | FC1(F)CCC1(F)Br (centres unmarked) [VIII, 1-bromo-1,2,2-trifluorocyclobutane] | not cause convulsions and death | found to possess inhalation anesthetic properties | ≥ 7 | < 0.5 % volume | 3.5 % volume | 
16 | FC1C(F)C(F)(F)C1(F)F (centres unmarked) [XI, b.p. 26°] |  |  |  |  |  | AC50 (anesthetic concentration) [5]: 10.5 % volume
17 | FC1C(F)C(F)(F)C1(F)F (centres unmarked) [XI, b.p. 63°] |  |  |  |  |  | AC50 (anesthetic concentration) [5]: 1.9 % volume
18 | FC1(F)CC(Cl)(Cl)C1(F)Cl (centres unmarked) [XIII, 1,1,2-trichloro-2,3,3-trifluorocyclobutane, reference compound] |  |  | 5 | 0.2 % volume | 1 % volume | Delayed death (mice [4]; mice, retested in the manner of Examples I to X, XII and XIII, after apparent recovery from anesthesia): The same "delayed death" phenomenon has been observed
19 | C1CC1 [cyclopropane] |  |  |  |  |  | Anesthetic properties / toxicity in the prior art [1]: effective if inflammable anesthetic
20 | FC(F)(F)C(Cl)Br (centres unmarked) [halothane, reference compound] |  |  | ~3 |  |  | 
21 | FC1(F)C(F)(F)C(F)(F)C1(F)F [octafluoro-] |  |  |  |  |  | Anesthetic properties / toxicity in the prior art [1]: inactive
